This is an account of results in article PMC11808136, “Screening and identification of host signaling pathways for alleviating influenza-induced production of pro-inflammatory cytokines, IP-10, IL-8, and MCP-1, using a U937 cell-based influenza model” (Frontiers in Microbiology, 2025).

Where two headings read alike, the source gives them in different places.

Data set [1] deals with IP-10 production in influenza virus-infected U937 cells (H7N8). Briefly: cells. It counts as cell-based, Human. The settings on record: Homo sapiens, U-937, read-out: EC50 IP-10.
Data set [2] relates to MCP-1 production in influenza virus-infected U937 cells (H1N1). Description: cells. It counts as cell-based. The settings on record: Homo sapiens; for EC50: read-out: EC50 MCP-1.
Data set [3] deals with IL-8 production in influenza virus-infected U937 cells (H7N8). Description: cells. The conditions noted are these: Homo sapiens, U-937, read-out: EC50 IL-8. Type of data set: cell-based, Human.
Data set [4] has as its system MCP-1 production in influenza virus-infected U937 cells (H7N8). Briefly: cells. Type of data set: cell-based, Human. The settings on record: Homo sapiens, U-937, read-out: EC50 MCP-1.
Data set [5] deals with STAT1 phosphorylation (p-STAT1). It counts as cell-based, Human.
For data set [6], the system named is ERK phosphorylation (p-ERK). Description: Western blot of phosphorylated ERK in influenza-infected U937 cells. It counts as cell-based, Human. The conditions noted are these: 24 h post-infection, western blot. As for the experimental part: Figure 5 Raf/MEK/ERK and p38 signal pathways are involved in the regulation of cytokines in U937 cells. (A–C) Determination of inhibition rates on IL-8, IP-10, and MCP-1 by each compound in the MAPK group and the distribution of targets between subgroups. U937 cells were infected with influenza A/PuertoRico/8/1934 virus (MOI = 0.1) in the presence of 10 μM of each inhibitor and then incubated at 37°C for 48 h. The distribution of the targets of all the inhibitors in the MAPK group was then analyzed and categorized into subgroups. […] The supernatants were harvested 48 h post-infection, and the levels of IL-8, MCP-1, and IP-10 were measured by AlphaLISA. (E) The cells were treated as in (C) except being lysed 24 h post-infection, and the levels of phosphorylated STAT1, p38, ERK (p-STAT1, p-p38, p-ERK), total STAT1, p38, ERK, and viral protein HA were assessed by western blot. (F) A quantitative analysis of the relative levels of the phosphorylated STAT1, p38, ERK (p-STAT1, p-p38, p-ERK) in (E). The data are representative of at least three independent experiments. n.s. no significance; *p < 0.05; **p < 0.01; ***p < 0.001.
(§1) Figure 6 TKIs repress cytokine production by suppressing the p38 pathway. […] Cells were lysed 24 h post-infection, and the levels of phosphorylated p38 and ERK (p-p38 and p-ERK) and total p38 and ERK were assessed by western blot. A quantification of phosphorylated p38 levels for each drug treatment was included in the right panel of each figure.
Cells were homogenized in RIPA lysis buffer containing a 1% protease inhibitor cocktail (Roche) to extract total protein. Equal amounts of protein homogenates were separated by SDS-PAGE (Bio-Rad) and transferred onto polyvinylidene difluoride membranes (pore size […]; Bio-Rad). […] Protein levels were detected with horseradish peroxidase-tagged secondary antibodies and enhanced chemiluminescence western blot reagents (Advansta), followed by visualization using an enhanced chemiluminescence system (AlphaEase FluorChem System, Alpha Innotech Corp.). Bands were quantified using ImageJ (Ver. 1.46; NIH, Bethesda, MD).

Data set [7] concerns influenza virus infection. Also on record: method as in Florence et al., 2018; Chen et al., 2019. The conditions noted are these: without compromising viral titers; ref Florence et al., 2018; Chen et al., 2019; cited from earlier work.
Data set [8] concerns phosphorylation of p38 (p-p38). Briefly: Western blot of phosphorylated p38 in influenza-infected U937 cells. Type of data set: cell-based, Human. The settings on record: Homo sapiens, U-937, read-out: IC50 p-p38. Here is the method: as §1
(§2) Cells were homogenized in RIPA lysis buffer containing a 1% protease inhibitor cocktail (Roche) to extract total protein. Equal amounts of protein homogenates were separated by SDS-PAGE (Bio-Rad) and transferred onto polyvinylidene difluoride membranes (pore size […]; Bio-Rad). The membranes were then blotted with monoclonal antibodies against GAPDH (1:1000, ZSGB-BIO), p38, phosphor-p38, ERK, phospho-ERK, STAT1, phosphor-STAT1 (1:1000; Cell Signaling Technology), STAT3, and phosphor-STAT3 (1:1000; Cell Signaling Technology), respectively. Protein levels were detected with horseradish peroxidase-tagged secondary antibodies and enhanced chemiluminescence western blot reagents (Advansta), followed by visualization using an enhanced chemiluminescence system (AlphaEase FluorChem System, Alpha Innotech Corp.). Bands were quantified using ImageJ (Ver. 1.46; NIH, Bethesda, MD).
On the technique in general: A western blot detects proteins with antibodies after separation by electrophoresis.

Data set [9] deals with STAT3 phosphorylation (p-STAT3). Briefly: Western blot of phosphorylated STAT3 in influenza-infected U937 cells. It counts as cell-based, Human. The conditions noted are these: 1 μM ponatinib, 24 h. As for the experimental part: Figure 3 JAK is essential for regulating the production of pro-inflammatory cytokines induced by influenza infection in U937 cells. Inhibition rates on IL-8 (A), IP-10 (B), and MCP-1 (C) by each compound in the PTK group are categorized based on targets. […] The cells were then lysed after 24 h incubation at 37°C, and the levels of phosphorylated STAT1 (p-STAT1), total STAT1, phosphorylated STAT3 (p-STAT3), and total STAT3 were assessed by western blot.
as §2

The target in the next data set is JAK1 (Homo sapiens, UniProt P23458). Briefly: Cell-free kinase activity assay, JAK1. The settings on record: cell-free kinase assay.
Data set [10] deals with MCP-1 production in influenza virus-infected U937 cells (H3N2). Description: cells. Type of data set: cell-based, Human. The conditions noted are these: Homo sapiens, U-937.
A further data set has as its system U937 cells. The settings on record: human.
Data set [11] concerns IP-10 production in influenza virus-infected U937 cells (H3N2). Briefly: cells. It counts as cell-based, Human. The conditions noted are these: Homo sapiens, U-937.
For another data set, the target named is T1, JAK2 (Homo sapiens, UniProt O60674).
T1 construct: purchased KinaseProfiler (Eurofin, Brussels, Belgium)
Description: Cell-free kinase activity assay, JAK2. Type of data set: biochemical. The conditions noted are these: cell-free kinase assay.

For data set [12], the system named is IP-10 production in influenza virus-infected U937 cells (H1N1). Briefly: cells. Type of data set: cell-based. The settings on record: Homo sapiens; for EC50: read-out: EC50 IP-10.
The test system of data set [13] is IL-8 production in influenza virus-infected U937 cells (H3N2). Description: cells. Type of data set: cell-based, Human. The conditions noted are these: Homo sapiens, U-937.
Data set [14] relates to IL-8 production in influenza virus-infected U937 cells (H1N1). Briefly: cells. Type of data set: cell-based, Human. The conditions noted are these: Homo sapiens; for EC50: read-out: EC50 IL-8.
The mark [15] stands for this setting: U-937, secondary screen, Supplemental Table 1.

Usually EC50 stands for the concentration needed to bring the measured effect to its halfway point. Broadly, the IC50 is the concentration needed to halve the response being measured.

T1 sequence (O60674 whole entry): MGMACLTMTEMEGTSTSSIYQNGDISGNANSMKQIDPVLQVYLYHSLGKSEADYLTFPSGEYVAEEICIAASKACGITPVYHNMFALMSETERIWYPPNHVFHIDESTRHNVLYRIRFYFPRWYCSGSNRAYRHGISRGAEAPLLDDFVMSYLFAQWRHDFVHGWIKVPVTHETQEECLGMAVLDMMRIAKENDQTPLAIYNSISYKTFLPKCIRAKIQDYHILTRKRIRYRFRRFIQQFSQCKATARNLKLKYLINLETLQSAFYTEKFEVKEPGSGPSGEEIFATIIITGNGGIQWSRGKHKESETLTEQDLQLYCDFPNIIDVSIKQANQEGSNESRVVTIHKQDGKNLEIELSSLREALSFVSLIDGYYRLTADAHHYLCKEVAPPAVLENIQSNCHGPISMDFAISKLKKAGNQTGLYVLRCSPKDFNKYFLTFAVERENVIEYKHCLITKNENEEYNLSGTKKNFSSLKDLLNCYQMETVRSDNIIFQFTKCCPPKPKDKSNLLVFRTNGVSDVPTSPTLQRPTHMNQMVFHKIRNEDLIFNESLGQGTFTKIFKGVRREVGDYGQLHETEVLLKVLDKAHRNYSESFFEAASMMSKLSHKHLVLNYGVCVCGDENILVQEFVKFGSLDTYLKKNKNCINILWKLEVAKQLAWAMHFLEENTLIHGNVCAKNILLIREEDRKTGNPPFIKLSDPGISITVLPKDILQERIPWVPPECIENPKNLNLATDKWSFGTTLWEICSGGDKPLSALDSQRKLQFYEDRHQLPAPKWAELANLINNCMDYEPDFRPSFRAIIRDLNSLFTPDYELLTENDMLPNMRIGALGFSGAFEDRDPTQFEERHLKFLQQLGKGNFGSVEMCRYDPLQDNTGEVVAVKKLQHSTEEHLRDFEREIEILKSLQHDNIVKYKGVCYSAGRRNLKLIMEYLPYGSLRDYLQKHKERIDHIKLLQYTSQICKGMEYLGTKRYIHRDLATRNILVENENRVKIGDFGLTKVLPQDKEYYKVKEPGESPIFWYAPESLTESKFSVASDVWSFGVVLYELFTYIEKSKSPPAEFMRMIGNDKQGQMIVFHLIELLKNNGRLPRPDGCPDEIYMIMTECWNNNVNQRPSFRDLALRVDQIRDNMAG
JAK1, sequence (P23458 whole entry): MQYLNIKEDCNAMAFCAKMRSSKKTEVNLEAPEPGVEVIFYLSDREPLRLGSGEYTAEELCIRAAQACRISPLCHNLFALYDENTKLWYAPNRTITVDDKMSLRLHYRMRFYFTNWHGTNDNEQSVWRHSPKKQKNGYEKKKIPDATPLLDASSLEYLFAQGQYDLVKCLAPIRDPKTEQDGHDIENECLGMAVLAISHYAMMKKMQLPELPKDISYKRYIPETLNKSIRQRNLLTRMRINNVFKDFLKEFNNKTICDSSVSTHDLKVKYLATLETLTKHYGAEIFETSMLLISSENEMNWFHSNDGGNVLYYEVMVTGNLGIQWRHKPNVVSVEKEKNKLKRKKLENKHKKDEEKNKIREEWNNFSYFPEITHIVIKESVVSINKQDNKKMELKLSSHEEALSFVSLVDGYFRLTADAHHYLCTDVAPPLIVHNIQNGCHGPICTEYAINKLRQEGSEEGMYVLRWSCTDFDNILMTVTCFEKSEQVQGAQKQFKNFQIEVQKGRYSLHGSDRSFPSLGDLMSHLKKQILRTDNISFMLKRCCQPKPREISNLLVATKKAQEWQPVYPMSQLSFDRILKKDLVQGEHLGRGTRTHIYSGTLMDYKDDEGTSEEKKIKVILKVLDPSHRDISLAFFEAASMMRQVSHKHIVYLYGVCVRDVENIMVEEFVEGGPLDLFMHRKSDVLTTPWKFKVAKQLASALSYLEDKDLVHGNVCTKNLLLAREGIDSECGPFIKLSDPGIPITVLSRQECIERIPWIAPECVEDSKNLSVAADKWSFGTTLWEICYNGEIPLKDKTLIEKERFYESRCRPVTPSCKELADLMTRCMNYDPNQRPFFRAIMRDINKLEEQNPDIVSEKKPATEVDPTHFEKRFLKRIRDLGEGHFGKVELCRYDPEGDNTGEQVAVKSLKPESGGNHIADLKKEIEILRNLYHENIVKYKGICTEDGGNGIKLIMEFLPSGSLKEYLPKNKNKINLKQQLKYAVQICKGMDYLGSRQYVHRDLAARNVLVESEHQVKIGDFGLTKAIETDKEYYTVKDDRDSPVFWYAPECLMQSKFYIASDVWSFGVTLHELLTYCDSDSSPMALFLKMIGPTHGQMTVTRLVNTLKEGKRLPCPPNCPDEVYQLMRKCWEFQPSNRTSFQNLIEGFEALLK

For the compound `Cc1ccc(C(=O)Nc2ccc(CN3CCN(C)CC3)c(C(F)(F)F)c2)cc1C#Cc1cnc2cccnn12` [Ponatinib], the half-maximal effective concentration (EC50) was 833 nM in data set [1]; < 5 nM in data set [2] (setting [15]); 385 nM in data set [2] (U-937); 833 nM in data set [3]; 345 nM in data set [4]; 625 nM in data set [10]. Moreover, the EC50 in data set [11] was 59 nM; in data set [12] (setting [15]) it was 60 nM; in data set [12] (U-937), 270 nM; in [13], 714 nM; in data set [14] (setting [15]), < 5 nM; in [14] (U-937), 294 nM. Further, the IC50 was 400 nM in data set [2] (U-937, read-out: IC50 MCP-1); 180 nM in data set [8]; 250 nM in data set [12] (U-937, read-out: IC50 IP-10); 300 nM in data set [14] (U-937). In addition, in data set [5], the STAT1 phosphorylation levels entry is “significantly reduced”. Also, the “phosphorylation level of ERK” value in [6] was “promoted”. In addition, in data set [7], the “protection of mice from lethal influenza infection” value is reported as “protecting mice from lethal influenza infection”. Besides, the STAT3 phosphorylation entry in [9] is listed as “limited inhibition”. The JAK1 activity entry on JAK1 is “directly inhibit”. In the data set on U937 cells, this compound yielded a maximum non-toxic concentration of 1 µM. For the same compound, the JAK2 activity entry on JAK2 is listed as “weaker effect”.
